The values below come from ChEMBL document CHEMBL5518208 (J Med Chem, 2024).

What all share (format): ADME, organism-based
A short description of data set [1]: Drug concentration in BALB/c mouse plasma at 100 mg/kg, sc measured after 2 hrs by LC-MS/MS analysis.
Data set [2] in a line: Cmax in male ICR mouse at 25 mg/kg, po measured upto 24 hrs by LC-MS/MS analysis. Conditions: in vivo.
A short description of data set [3]: Half life in male ICR mouse at 5 mg/kg, iv measured upto 24 hrs by LC-MS/MS analysis. To be noted: in vivo.
Data set [4] can be described thus: Drug concentration in BALB/c mouse plasma at 100 mg/kg, sc measured after 0.5 hrs by LC-MS/MS analysis.
Data set [5] is described as follows: Drug concentration in BALB/c mouse plasma at 100 mg/kg, sc measured after 1 hrs by LC-MS/MS analysis.
Data set [6] is described as follows: Observed volume of distribution at steady state in male ICR mouse at 5 mg/kg, iv measured upto 24 hrs by LC-MS/MS analysis. To be noted: in vivo, read-out: Vdss.
Data set [7] is described as follows: Observed AUC infinity in male ICR mouse at 25 mg/kg, po measured upto 24 hrs by LC-MS/MS analysis. Conditions: in vivo.
Data set [8] is described as follows: Observed MRT infinity in male ICR mouse at 5 mg/kg, iv measured upto 24 hrs by LC-MS/MS analysis. To be noted: in vivo.
Data set [9] is described as follows: Tmax in male ICR mouse at 25 mg/kg, po measured upto 24 hrs by LC-MS/MS analysis. To be noted: in vivo.
A short description of data set [10]: Observed MRT infinity in male ICR mouse at 25 mg/kg, po measured upto 24 hrs by LC-MS/MS analysis. To be noted: in vivo.
A short description of data set [11]: AUC last in male ICR mouse at 25 mg/kg, po measured upto 24 hrs by LC-MS/MS analysis. To be noted: in vivo.
The nature of data set [12]: Half life in male ICR mouse at 25 mg/kg, po measured upto 24 hrs by LC-MS/MS analysis. Conditions: in vivo.
A short description of data set [13]: AUC last in male ICR mouse at 5 mg/kg, iv measured upto 24 hrs by LC-MS/MS analysis. To be noted: in vivo.
The nature of data set [14]: Observed clearance in male ICR mouse at 5 mg/kg, iv measured upto 24 hrs by LC-MS/MS analysis. Conditions: in vivo.
A short description of data set [15]: Drug concentration in BALB/c mouse plasma at 100 mg/kg, sc measured after 4 hrs by LC-MS/MS analysis.
Data set [16] in a line: Observed AUC infinity in male ICR mouse at 5 mg/kg, iv measured upto 24 hrs by LC-MS/MS analysis. Conditions: in vivo.

By Cmax is commonly meant the maximum level reached in the sampled fluid or tissue. In general, half-life refers to the time in which the quantity being followed falls by half. As a reminder, the AUC(0-inf) is the area under the concentration-time curve extrapolated to infinity. As usually defined, the MRT inf is the average time that molecules of a dose stay in the body. One may read the Tmax as the time from dosing to the highest level. Broadly, the AUC(0-t) is the area under the concentration-time curve up to a stated or last time point. By clearance is commonly meant the rate of elimination divided by the concentration. Read a high clearance as a high capacity for elimination.

Turning to `O=c1ccc2c(N3C[C@@H]4[C@@H](CCP(=O)(O)O)[C@@H]4C3)ncnc2[nH]1`, the concentration at 2 h in data set [1] is 1.5 µM. Further, the highest level in [2] (Cmax) was 352 ng/mL. Moreover, the half-life in [3] was 60.6 min; in [12], 33.6 min. Further, the concentration at 0.5 h in data set [4] was 112 µM. In [5], this molecule showed a concentration at 1 h of 26 µM. In addition, in data set [6], the Vd is 0.373 L/kg. Besides, the AUC(0-inf) worked out at 965 ng·h/mL in data set [7] and 4400 ng·h/mL in data set [16]. For the same molecule, the figures for the mean residence time (MRT inf) in [8] and in data set [10] were 18.6 min and 156 min, respectively. Further, in data set [9], the Tmax came out at 45 min. Besides, the AUC(0-t) at 24 h was 932 ng·h/mL in [11] and 4390 ng·h/mL in [13]. In addition, the clearance in data set [14] came out at 21.6 mL/min/kg. In data set [15], this molecule gave a concentration at 4 h of 0.04 µM.
